According to US8765677B2 (priority 2009, dated 2014):
“Also recorded” adds a separate entry of the source. Where a SMILES comes first, the peptide text is derived from it.

Assays:
[1] = system: excitatory synaptic transmission between primary afferents and dorsal horn superficial lamina neurons; assay type: cell-based, rat
[2] = system: mice with CFA-induced mechanical allodynia; settings: mouse, in vivo, sc
N-type VGCCs = N-type VGCCs (Rattus norvegicus, UniProt Q02294); assay: biochemical; assay type: binding
Sequence of N-type VGCCs (Q02294 whole entry, looked up): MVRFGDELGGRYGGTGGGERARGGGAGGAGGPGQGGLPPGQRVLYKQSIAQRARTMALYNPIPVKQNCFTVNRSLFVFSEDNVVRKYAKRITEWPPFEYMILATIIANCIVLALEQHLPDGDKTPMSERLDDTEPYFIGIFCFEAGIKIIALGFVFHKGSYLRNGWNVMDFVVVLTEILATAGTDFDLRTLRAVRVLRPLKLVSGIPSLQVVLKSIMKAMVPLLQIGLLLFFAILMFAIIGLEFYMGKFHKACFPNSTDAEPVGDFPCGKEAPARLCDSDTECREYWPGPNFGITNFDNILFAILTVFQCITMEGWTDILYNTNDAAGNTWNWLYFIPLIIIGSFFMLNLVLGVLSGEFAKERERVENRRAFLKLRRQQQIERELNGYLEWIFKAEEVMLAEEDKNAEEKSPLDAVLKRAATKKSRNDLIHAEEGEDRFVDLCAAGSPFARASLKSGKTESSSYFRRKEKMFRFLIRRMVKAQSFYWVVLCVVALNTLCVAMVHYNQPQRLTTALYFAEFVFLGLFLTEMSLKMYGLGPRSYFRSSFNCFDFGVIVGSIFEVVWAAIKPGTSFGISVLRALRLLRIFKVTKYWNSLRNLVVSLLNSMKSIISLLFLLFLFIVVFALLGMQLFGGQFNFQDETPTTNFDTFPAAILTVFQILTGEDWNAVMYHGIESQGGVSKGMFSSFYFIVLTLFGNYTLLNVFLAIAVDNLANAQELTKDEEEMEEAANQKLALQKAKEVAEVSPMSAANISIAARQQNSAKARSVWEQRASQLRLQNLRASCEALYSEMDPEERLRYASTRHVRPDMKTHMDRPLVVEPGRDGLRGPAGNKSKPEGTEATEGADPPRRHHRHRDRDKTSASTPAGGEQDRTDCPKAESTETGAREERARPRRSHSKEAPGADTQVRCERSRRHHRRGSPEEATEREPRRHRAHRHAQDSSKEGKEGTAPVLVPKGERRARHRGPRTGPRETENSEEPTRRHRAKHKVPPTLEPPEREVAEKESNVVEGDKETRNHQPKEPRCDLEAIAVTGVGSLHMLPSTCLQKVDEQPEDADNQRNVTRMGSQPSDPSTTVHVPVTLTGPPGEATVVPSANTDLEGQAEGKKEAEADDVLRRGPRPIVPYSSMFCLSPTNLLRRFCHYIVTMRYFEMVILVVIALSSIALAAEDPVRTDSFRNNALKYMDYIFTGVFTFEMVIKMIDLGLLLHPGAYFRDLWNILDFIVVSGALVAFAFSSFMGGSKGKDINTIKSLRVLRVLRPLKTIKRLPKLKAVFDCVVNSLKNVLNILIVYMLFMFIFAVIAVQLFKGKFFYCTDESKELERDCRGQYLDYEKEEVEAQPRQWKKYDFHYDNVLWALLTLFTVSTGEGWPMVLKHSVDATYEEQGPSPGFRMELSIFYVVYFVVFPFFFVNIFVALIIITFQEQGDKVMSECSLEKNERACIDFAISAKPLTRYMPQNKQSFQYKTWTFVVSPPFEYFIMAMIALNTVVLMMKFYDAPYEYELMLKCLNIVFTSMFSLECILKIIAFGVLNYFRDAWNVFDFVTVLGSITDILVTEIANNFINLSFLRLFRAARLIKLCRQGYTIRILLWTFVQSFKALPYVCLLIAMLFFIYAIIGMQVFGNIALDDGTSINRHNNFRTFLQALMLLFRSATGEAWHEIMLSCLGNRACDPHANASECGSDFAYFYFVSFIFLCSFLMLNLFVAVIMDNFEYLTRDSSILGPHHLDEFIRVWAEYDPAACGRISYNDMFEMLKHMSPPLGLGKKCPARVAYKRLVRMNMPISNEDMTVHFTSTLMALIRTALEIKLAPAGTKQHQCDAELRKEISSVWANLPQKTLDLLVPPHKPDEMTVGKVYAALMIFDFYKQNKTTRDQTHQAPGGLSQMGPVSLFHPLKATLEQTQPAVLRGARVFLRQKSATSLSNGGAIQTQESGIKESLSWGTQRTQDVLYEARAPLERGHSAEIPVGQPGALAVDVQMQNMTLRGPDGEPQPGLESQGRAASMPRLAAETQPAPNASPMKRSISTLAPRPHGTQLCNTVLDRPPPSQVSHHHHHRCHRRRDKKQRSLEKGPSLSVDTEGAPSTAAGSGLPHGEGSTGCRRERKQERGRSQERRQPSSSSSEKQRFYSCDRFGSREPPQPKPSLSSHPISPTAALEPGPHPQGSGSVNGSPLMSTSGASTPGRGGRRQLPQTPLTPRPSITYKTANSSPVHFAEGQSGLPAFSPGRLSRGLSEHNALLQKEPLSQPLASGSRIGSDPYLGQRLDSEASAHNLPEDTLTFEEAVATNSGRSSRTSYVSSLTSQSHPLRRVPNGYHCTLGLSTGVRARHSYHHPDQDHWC

[3] = system: nerve injury model of neuropathic pain; settings: rat, in vivo
[4] = system: native VGCCs in DRG sensory neurons; assay type: cell-based, rat; settings: for maximum inhibition of inward Ba2+ current: 0.1 µM
Sprague-Dawley rats = settings: rat, in vivo
[5] = system: low-voltage-activated T-type VGCC in DRG neurons; assay type: cell-based, rat
[6] = biological target: recombinant Cav1.3 α1D (L-type) channels (α/α2δ1/β3) (Rattus norvegicus, UniProt P27732); assay type: cell-based
[7] = biological target: recombinant Cav2.3 α1E (R-type) channels (α/α2δ1/β3) (Rattus norvegicus, UniProt Q07652); assay type: cell-based
[8] = biological target: recombinant Cav2.1 α1A (P/Q-type) channels (α/α2δ1/β3) (Oryctolagus cuniculus, UniProt P27884); assay: cell-based; set-up: species or system rabbit
[9] = biological target: recombinant Cav1.2 α1C (L-type) channels (α/α2δ1/β3) (Oryctolagus cuniculus, UniProt P15381); assay type: cell-based, rabbit
Sequence of recombinant Cav1.2 α1C (L-type) channels (α/α2δ1/β3) (P15381 whole entry, looked up): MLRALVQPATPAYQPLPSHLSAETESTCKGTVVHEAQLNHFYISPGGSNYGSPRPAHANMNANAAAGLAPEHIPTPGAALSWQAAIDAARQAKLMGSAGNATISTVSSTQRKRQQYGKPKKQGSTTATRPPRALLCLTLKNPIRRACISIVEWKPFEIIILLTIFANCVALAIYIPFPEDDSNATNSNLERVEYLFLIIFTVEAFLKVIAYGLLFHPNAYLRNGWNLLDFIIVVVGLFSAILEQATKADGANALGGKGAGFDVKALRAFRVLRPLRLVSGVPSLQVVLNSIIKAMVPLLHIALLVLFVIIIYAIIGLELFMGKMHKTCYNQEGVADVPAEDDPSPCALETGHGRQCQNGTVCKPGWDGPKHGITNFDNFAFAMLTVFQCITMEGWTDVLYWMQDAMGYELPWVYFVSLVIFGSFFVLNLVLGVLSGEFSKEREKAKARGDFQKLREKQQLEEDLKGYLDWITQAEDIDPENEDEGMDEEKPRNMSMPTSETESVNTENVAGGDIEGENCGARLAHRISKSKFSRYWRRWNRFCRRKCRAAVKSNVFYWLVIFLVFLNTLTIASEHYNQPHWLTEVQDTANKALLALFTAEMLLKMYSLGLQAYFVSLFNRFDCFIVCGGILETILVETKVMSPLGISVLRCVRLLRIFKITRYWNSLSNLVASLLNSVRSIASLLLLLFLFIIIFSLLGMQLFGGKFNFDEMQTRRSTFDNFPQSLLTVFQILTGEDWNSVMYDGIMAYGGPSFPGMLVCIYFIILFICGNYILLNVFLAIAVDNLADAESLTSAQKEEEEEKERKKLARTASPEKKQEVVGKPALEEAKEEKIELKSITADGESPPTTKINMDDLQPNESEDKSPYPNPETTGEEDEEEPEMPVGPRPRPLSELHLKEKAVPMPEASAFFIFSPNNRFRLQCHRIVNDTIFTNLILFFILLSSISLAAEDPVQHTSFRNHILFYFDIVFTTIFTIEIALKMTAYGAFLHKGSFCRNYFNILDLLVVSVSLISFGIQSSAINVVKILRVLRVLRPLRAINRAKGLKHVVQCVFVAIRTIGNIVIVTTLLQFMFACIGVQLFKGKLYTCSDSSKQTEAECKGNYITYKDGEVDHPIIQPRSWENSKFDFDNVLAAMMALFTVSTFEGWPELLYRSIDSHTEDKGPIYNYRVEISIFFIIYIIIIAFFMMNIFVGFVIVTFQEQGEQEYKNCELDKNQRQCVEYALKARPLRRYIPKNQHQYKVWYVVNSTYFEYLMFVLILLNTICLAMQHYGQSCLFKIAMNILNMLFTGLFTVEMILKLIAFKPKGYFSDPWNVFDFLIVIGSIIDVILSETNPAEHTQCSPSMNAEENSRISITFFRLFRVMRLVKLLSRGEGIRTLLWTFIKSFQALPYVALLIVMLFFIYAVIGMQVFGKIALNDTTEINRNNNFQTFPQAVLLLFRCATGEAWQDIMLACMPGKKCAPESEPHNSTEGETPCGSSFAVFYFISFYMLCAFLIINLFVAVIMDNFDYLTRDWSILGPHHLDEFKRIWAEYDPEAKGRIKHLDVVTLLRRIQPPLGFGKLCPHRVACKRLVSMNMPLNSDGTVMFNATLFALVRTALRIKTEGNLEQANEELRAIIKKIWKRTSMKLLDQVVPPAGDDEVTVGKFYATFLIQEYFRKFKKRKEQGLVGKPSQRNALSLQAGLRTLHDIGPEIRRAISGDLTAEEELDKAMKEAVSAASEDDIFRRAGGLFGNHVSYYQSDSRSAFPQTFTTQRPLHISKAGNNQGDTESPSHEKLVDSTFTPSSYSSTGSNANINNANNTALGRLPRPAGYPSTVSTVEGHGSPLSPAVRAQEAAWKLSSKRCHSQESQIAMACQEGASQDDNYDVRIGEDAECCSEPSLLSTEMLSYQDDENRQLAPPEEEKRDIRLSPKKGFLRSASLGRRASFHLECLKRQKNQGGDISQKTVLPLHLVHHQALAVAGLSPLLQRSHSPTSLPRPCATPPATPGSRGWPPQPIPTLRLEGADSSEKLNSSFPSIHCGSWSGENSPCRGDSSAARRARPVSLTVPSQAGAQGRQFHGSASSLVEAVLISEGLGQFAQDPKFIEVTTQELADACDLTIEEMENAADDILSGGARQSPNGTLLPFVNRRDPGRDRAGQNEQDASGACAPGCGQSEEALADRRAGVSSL

[10] = biological target: recombinant N-type (Cav2.2) VGCCs α1B-b/α2δ1/β2a (Rattus norvegicus, UniProt Q02294); assay type: cell-based
Sequence of recombinant N-type (Cav2.2) VGCCs α1B-b/α2δ1/β2a (Q02294 whole entry, looked up): as the sequence (Q02294 whole entry, looked up) above

[11] = biological target: recombinant N-type (Cav2.2) VGCCs α1B-b/α2δ1/β3 (Rattus norvegicus, UniProt Q02294); assay: cell-based; assay type: cell-based
Sequence of recombinant N-type (Cav2.2) VGCCs α1B-b/α2δ1/β3 (Q02294 whole entry, looked up): as above

SMILES	EPSC amplitude recovered after washout [1]	reduction of evoked monosynaptic EPSC amplitude [1]	reversal of incapacitance [2]	displacement of 125I-GVIA binding (N-type VGCCs)	IC50 (N-type VGCCs; affinity)	IC50 (N-type VGCCs; pIC50)	relief of mechanical allodynia [3]	maximum inhibition of inward Ba2+ current [4]	side effects (shakes, tail twitching, serpentine tail movements) (Sprague-Dawley rats)	effect on T-type current [5]	effect on P/Q- and L-type VGCC current components [4]	effect on Cav1.3 channels [6]	effect on Cav2.3 channels [7]	effect on Cav2.1 channels [8]	effect on Cav1.2 channels [9]	Hill slope [10]	Hill slope [11]
C[C@@H]1NC(=O)CNC(=O)[C@H](CCCCN)NC(=O)CNC(=O)[C@H](CCCCN)NC(=O)[C@@H](N)CSSC[C@@H]2NC(=O)[C@@H]3CSSC[C@@H](C(N)=O)NC(=O)[C@H](CCCNC(=N)N)NC(=O)CNC(=O)[C@H](CO)NC(=O)[C@H](CCCNC(=N)N)NC(=O)[C@H](CSSC[C@H](NC(=O)[C@H](CO)NC1=O)C(=O)N[C@@H](CCCNC(=N)N)C(=O)N[C@@H](CCCNC(=N)N)C(=O)N[C@@H]([C@@H](C)O)C(=O)N[C@@H](CO)C(=O)N[C@@H](Cc1ccc(O)cc1)C(=O)N[C@@H](CC(=O)O)C(=O)N3)NC(=O)[C@H](CO)NC(=O)CNC(=O)[C@H]([C@@H](C)O)NC2=O [CVIE, CKGKGASCRRTSYDCCTGSCRSGRC]	78±7 % of control	67±5%	highly significant reversal of incapacitance; also recorded: subsided	fully displaced	37 pM	20 pM	completely relieves mechanical allodynia; also recorded: relieved mechanical allodynia	~50%	substantially decreased side effects compared to CVID	–	–	–	–	–	–	–	–
CC(C)C[C@@H]1NC(=O)[C@H](CCCNC(=N)N)NC(=O)[C@@H]2CSSC[C@@H]3NC(=O)[C@H](CO)NC(=O)[C@H](C)NC(=O)CNC(=O)[C@H](CCCCN)NC(=O)CNC(=O)[C@H](CCCCN)NC(=O)[C@@H](N)CSSC[C@H](NC(=O)[C@H](CSSC[C@@H](C(N)=O)NC(=O)[C@H](CCCNC(=N)N)NC(=O)CNC1=O)NC(=O)[C@H](CC(=O)O)NC(=O)[C@H](Cc1ccc(O)cc1)NC(=O)[C@H](CO)NC(=O)[C@H]([C@@H](C)O)NC(=O)[C@H](CCCNC(=N)N)NC(=O)[C@H](CCCNC(=N)N)NC3=O)C(=O)N[C@@H]([C@@H](C)O)C(=O)NCC(=O)N[C@@H](CO)C(=O)N2 [CVIF] (HELM PEPTIDE1{C.K.G.K.G.A.S.C.R.R.T.S.Y.D.C.C.T.G.S.C.R.L.G.R.C.[am]}$PEPTIDE1,PEPTIDE1,1:R3-16:R3|PEPTIDE1,PEPTIDE1,8:R3-20:R3|PEPTIDE1,PEPTIDE1,15:R3-25:R3$$$V2.0)	73±10 % of control	61±7%	significant reversal of incapacitance; also recorded: subsided	fully displaced	–	–	completely relieves mechanical allodynia; also recorded: relieved mechanical allodynia	~50%	substantially decreased side effects compared to CVID	not affected	does not affect	–	–	–	–	–	–
C[C@@H](O)[C@@H]1NC(=O)[C@H](Cc2ccc(O)cc2)NC(=O)[C@@H]2C[C@@H](O)CN2C(=O)[C@H](CC(N)=O)NC(=O)[C@@H]2CSSC[C@@H]3NC(=O)[C@H](CO)NC(=O)[C@H](CO)NC(=O)CNC(=O)[C@@H]4C[C@@H](O)CN4C(=O)[C@H](CO)NC(=O)[C@H](CCCCN)NC(=O)[C@@H](N)CSSC[C@H](NC(=O)[C@H](CSSC[C@@H](C(=O)N[C@@H](Cc4ccc(O)cc4)C(N)=O)NC(=O)[C@H](CCCN=C(N)N)NC(=O)[C@H](CCCCN)NC1=O)NC(=O)[C@H](CC(N)=O)NC(=O)[C@H](Cc1ccc(O)cc1)NC(=O)[C@H](CO)NC(=O)[C@H]([C@@H](C)O)NC(=O)[C@@H]1C[C@@H](O)CN1C(=O)[C@H](CO)NC3=O)C(=O)N[C@@H](CCCN=C(N)N)C(=O)N[C@@H](CO)C(=O)N2 [GVIA, reference compound]	–	–	–	–	24 pM	25.1 pM	–	–	–	–	–	–	–	–	–	–	–
CC(C)C[C@@H]1NC(=O)[C@H](CCCNC(=N)N)NC(=O)[C@@H]2CSSC[C@@H]3NC(=O)[C@H](CO)NC(=O)[C@H](C)NC(=O)CNC(=O)[C@H](CCCCN)NC(=O)CNC(=O)[C@H](CCCCN)NC(=O)[C@@H](N)CSSC[C@H](NC(=O)[C@H](CSSC[C@@H](C(N)=O)NC(=O)[C@H](CCCNC(=N)N)NC(=O)CNC1=O)NC(=O)[C@H](CC(=O)O)NC(=O)[C@H](Cc1ccc(O)cc1)NC(=O)[C@H](CO)NC(=O)[C@H]([C@@H](C)O)NC(=O)[C@H](CCCCN)NC(=O)[C@H](CCCNC(=N)N)NC3=O)C(=O)N[C@@H]([C@@H](C)O)C(=O)NCC(=O)N[C@@H](CO)C(=O)N2 [[R10K]CVIF] (HELM PEPTIDE1{C.K.G.K.G.A.S.C.R.K.T.S.Y.D.C.C.T.G.S.C.R.L.G.R.C.[am]}$PEPTIDE1,PEPTIDE1,1:R3-16:R3|PEPTIDE1,PEPTIDE1,8:R3-20:R3|PEPTIDE1,PEPTIDE1,15:R3-25:R3$$$V2.0)	–	–	highly significant reversal of incapacitance; also recorded: sustained	–	–	–	relieved mechanical allodynia	–	substantially decreased side effects compared to CVID	–	–	neither [R10K]CVIE or [R10K]CVIF had any effect	neither [R10K]CVIE or [R10K]CVIF had any effect	neither [R10K]CVIE or [R10K]CVIF had any effect	neither [R10K]CVIE or [R10K]CVIF had any effect	0.86±0.04	0.65±0.04
